Measured values reported in patent US20040005537A1, “Method of identifying toxic agents using differential gene expression” (priority 2000, published 2004).

Test system: rat heart tissue
Assay: GENECALLING differential gene expression analysis after dosing of serotonin modulating agents
Type: in vivo, Sprague Dawley rats
Summary of the method: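 Rats dosed with serotonin modulating agents, controls given sterile water or canola oil; tissue taken 24 h after the last dose. Total RNA converted to cDNA and profiled by GENECALLING differential expression analysis; fragments changed more than ±1.5-fold were selected.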

## CCNC(C)Cc1cccc(C(F)(F)F)c1 (stereo not shown) [fenfluramine]
CARDIOTOX 1
  Effects on Transcription Level: Novel gene fragment, 524 bp, 86% SI to mouse F-box protein FBX6b [AF176526]: +1.4 fold
CARDIOTOX 2
  Effects on Transcription Level: Novel gene fragment, 306 bp, 91% SI to mouse low density lipoprotein receptor related protein 4 [AB013874]: −1.1 fold
CARDIOTOX 3
  Effects on Transcription Level: Novel gene fragment, 540 bp, 97% SI to mouse skeletal muscle alpha-actin [X03766]: +1.3 fold
CARDIOTOX 4
  Effects on Transcription Level: Novel gene fragment, 80 bp: −1.1 fold
CARDIOTOX 5
  Effects on Transcription Level: Novel gene fragment, 957 bp, 99% SI to kidney injury associated moleculer HW036 [V80591]: −1.4 fold
CARDIOTOX 6
  Effects on Transcription Level: Novel gene fragment, 282 bp, 85% SI to human KIAA1515 protein [AB040948]: −1.3 fold
CARDIOTOX 7
  Effects on Transcription Level: Novel gene fragment, 405 bp, 88% SI to human 2-oxoglutarate dehydrogenase [D10523]: +1.4 fold
CARDIOTOX 8, GenBank AB010743
  Effects on Transcription Level: UCP2: −1.3 fold
CARDIOTOX 9, GenBank J03753
  Effects on Transcription Level: Plasma membrane Ca2 + ATPase-isoform 1: −1.3 fold
CARDIOTOX 10
  Effects on Transcription Level: Novel gene fragment, 242 bp, 97% SI to mouse HSP86 heat-shock protein [X16857]: +1.6 fold
CARDIOTOX 11
  Effects on Transcription Level: Novel gene fragment, 280 bp, 65% SI to human TRF1-interacting, ankyrin-related ADP-ribose polymerase [AF082556]: +1.6 fold
CARDIOTOX 12
  Effects on Transcription Level: Novel gene fragment, 348 bp, 88% SI to mouse Sec61 protein complex gamma subunit [U11027]: +1.6 fold
CARDIOTOX 13
  Effects on Transcription Level: Novel gene fragment 553 bp, 93% SI to mouse Sid329 [AB024984]: +1.5 fold
CARDIOTOX 14, GenBank AB020759
  Effects on Transcription Level: Kruppel-like transcription factor: +1.7 fold
CARDIOTOX 15, GenBank X62166
  Effects on Transcription Level: Ribosomal protein L3: +2.3 fold
CARDIOTOX 16, GenBank S78556
  Effects on Transcription Level: Glucose-regulated protein (GRP) 75: +1.5 fold
CARDIOTOX 17, GenBank M14050
  Effects on Transcription Level: Immunoglobulin heavy chain binding protein (BiP): +2.0 fold
CARDIOTOX 18, GenBank X56541
  Effects on Transcription Level: Membrane-spannining proteoglycan NG2: −1.5 fold
CARDIOTOX 19
  Effects on Transcription Level: Novel gene fragment, 1294 bp, 96% SI to mouse Sui 1 (elF) homolog [AF129888]: +1.6 fold
CARDIOTOX 20
  Effects on Transcription Level: Novel gene fragment, 723 bp, 85% SI to human translation initiation factor elF3 p40 subunit [U54559]: +1.5 fold
CARDIOTOX 21
  Effects on Transcription Level: Novel gene fragment, 1324 bp, 76% SI to human flavoprotein subunit of complex II [D30648]: +1.5 fold
CARDIOTOX 22
  Effects on Transcription Level: Novel gene fragment, 852 bp, 81% SI to human vacuolar proton-ATPase subunit M9.2 [Y15286]: +1.6 fold
CARDIOTOX 23
  Effects on Transcription Level: Novel gene fragment, 178 bp, 91% SI to mouse myosin light chain-2 isoform MLC-2a [S70785]: +1.5 fold
CARDIOTOX 24
  Effects on Transcription Level: Novel gene fragment, 167 bp, 90% SI to mouse Rab20 [X80332]: +1.8 fold
CARDIOTOX 25
  Effects on Transcription Level: Novel gene fragment, 1070 bp, 80% SI to human muscle-specific protein [AF249873]: +1.7 fold
CARDIOTOX 26
  Effects on Transcription Level: Novel gene fragment, 1143 bp, 82% SI to human sarcoma amplified sequence (SAS) [U01160]: +1.8 fold
CARDIOTOX 27
  Effects on Transcription Level: Novel gene fragment, 74 bp,75% SI to human secreted protein [X30160] (from patent database)/[X97578] (from patent database)/potential cytokine): +1.6 fold
CARDIOTOX 28
  Effects on Transcription Level: Novel gene fragment, 408 bp, 90% SI to human CGI-07 protein [AF132941]: +1.6 fold
CARDIOTOX 29
  Effects on Transcription Level: Novel gene fragment, 618 bp, 95% SI to rat progression related cDNA, ZNPE-120 3′ end partial sequence [patent database X90805]: +1.6 fold
CARDIOTOX 30
  Effects on Transcription Level: Novel gene fragment, 717 bp: +1.6 fold
CARDIOTOX 31
  Effects on Transcription Level: Novel gene fragment, 546 bp: +1.5 fold
CARDIOTOX 32
  Effects on Transcription Level: Novel gene fragment, 920 bp, 91% SI to human HSPC061 [AF161546]: +1.5 fold
CARDIOTOX 33
  Effects on Transcription Level: Novel gene fragment, 203 bp, 92% SI to rabbit sarcoplasmic reticulum glycoprotein [J04480]: −1.7 fold
CARDIOTOX 34
  Effects on Transcription Level: Novel gene fragment, 178 bp, 68% SI to mouse IgG receptor (beta-Fc-gamma-RII)[M63159]: +1.5 fold
CARDIOTOX 35, GenBank X87107
  Effects on Transcription Level: Ribosomal protein L6: +1.5 fold
CARDIOTOX 36, GenBank U31935
  Effects on Transcription Level: CAP2 protein (adenylyl cyclase-associated protein 2): +2.0 fold
CARDIOTOX 37, GenBank M63837
  Effects on Transcription Level: Alpha-platelet-derived growth factor receptor: +1.5 fold
CARDIOTOX 38, GenBank X74402
  Effects on Transcription Level: Rab GD1 alpha protein: −1.5 fold
CARDIOTOX 39, GenBank Y08355
  Effects on Transcription Level: PKC-zeta-interacting protein: +1.5 fold
CARDIOTOX 40, GenBank X65198
  Effects on Transcription Level: ERK or MAP kinase: +1.5 fold
CARDIOTOX 41, GenBank U37486
  Effects on Transcription Level: Peroxisomal multifunctional enzyme type II: +1.5 fold
CARDIOTOX 42, GenBank D30035
  Effects on Transcription Level: HBP23 (heme-binding protein 23 kDa): +1.6 fold
CARDIOTOX 43, GenBank U90725
  Effects on Transcription Level: Caveolae-associated protein: +1.5 fold
CARDIOTOX 44, GenBank AF025506
  Effects on Transcription Level: Prenylated rab acceptor 1 (PRA1): +1.6 fold
CARDIOTOX 45
  Effects on Transcription Level: Novel gene fragment, 337 bp, 88% SI to rabbit cardiac ryanodine receptor (RyR-2)[U50465]: −1.6 fold
CARDIOTOX 46
  Effects on Transcription Level: Novel gene fragment, 81 bp, 85% SI to human titin [X90568]: −1.8 fold
CARDIOTOX 47
  Effects on Transcription Level: Novel gene fragment, 428 bp, 86% SI to human titin [X90568]: −1.8 fold
CARDIOTOX 48
  Effects on Transcription Level: Novel gene fragment, 374 bp, 88% SI to human titin [X90568]: −1.8 fold
CARDIOTOX 49
  Effects on Transcription Level: Novel gene fragment, 428 bp, 85% SI to human titin [90568]: −1.9 fold
CARDIOTOX 50
  Effects on Transcription Level: Novel gene fragment, 1216 bp, 93% SI to mouse mircotubule-associated protein (MAP) 1B protein [AF115776]: −1.7 fold
CARDIOTOX 51
  Effects on Transcription Level: Novel gene fragment, 1115 bp, 83% SI to human KIAA0549 protein [AB011121]: −1.8 fold
CARDIOTOX 52
  Effects on Transcription Level: Novel gene fragment, 153 bp: −1.7 fold
CARDIOTOX 53
  Effects on Transcription Level: Novel gene fragment, 89 bp, 93% SI to human putative glialblastoma cell differentiation-related protein (GBDR1) [AF068195]: −1.6 fold
CARDIOTOX 54, GenBank U61266
  Effects on Transcription Level: Rho-associated kinase beta: −1.8 fold
CARDIOTOX 55, GenBank D13062
  Effects on Transcription Level: Adenylate kinase 3: +1.6 fold
CARDIOTOX 56, GenBank AF049878
  Effects on Transcription Level: Amyloid beta-peptide binding protein: +1.6 fold
CARDIOTOX 57, GenBank D12771
  Effects on Transcription Level: Mitochondrial adenine nuleotide translocator: +1.6 fold
CARDIOTOX 58
  Effects on Transcription Level: Novel gene fragment, 710 bp, 94% SI to mouse chromatin structural protein homolog Supt5 hp (Supt5 h)[U88539]: +3.4 fold
CARDIOTOX 60
  Effects on Transcription Level: Novel gene fragment, 186 bp, 66% SI to human N-acetylglucosaminyltransferase 1 (GlcNAc-TI)[M55621]: −3.0 fold
CARDIOTOX 61
  Effects on Transcription Level: Novel gene fragment, 238 bp, 95% SI to mouse MAP kinase-activated protein kinase 2 [X76850]: −2.4 fold
CARDIOTOX 62
  Effects on Transcription Level: Novel gene fragment, 173 bp, 70% SI to G protein-coupled receptor kinase GRK4 [X97568]: −6.6 fold
CARDIOTOX 63
  Effects on Transcription Level: Novel gene fragment, 133 bp, 77% SI to human apoptosis related protein hSARP3 [patent database: V19114]: −3.1 fold
CARDIOTOX 64
  Effects on Transcription Level: Novel gene fragment, 477 bp, 98% SI to peroxisomal phytanoyl-CoA hydroxylase (PHYH) [AF121345]: +4.8 fold
CARDIOTOX 65
  Effects on Transcription Level: Novel gene fragment, 413 bp, 95% SI to mouse dihydrolipoamide dehydrogenase (Dld) [U73445]: +2.3 fold
CARDIOTOX 66
  Effects on Transcription Level: Novel gene fragment, 726 bp, 76% SI to human succinate dehydrogenase flavoprotein subunit (SDH) [L21936]: −4.0 fold
CARDIOTOX 67
  Effects on Transcription Level: Novel gene fragment, 440 bp, 92% SI to mouse cytochrome c oxidase Vllc [X52940]: +4.0 fold
CARDIOTOX 68
  Effects on Transcription Level: Novel gene fragment, 276 bp, 80% SI to human titin [X90568]: −12.7 fold
CARDIOTOX 69
  Effects on Transcription Level: Novel gene fragment, 149 bp, 70% SI to human titin [X90568]: −5.6 fold
CARDIOTOX 70
  Effects on Transcription Level: Novel gene fragment, 467 bp, 94% SI to mouse gelsolin [J04953]: −3.6 fold
CARDIOTOX 71
  Effects on Transcription Level: Novel gene fragment, 535 bp, 90% SI to mouse slow/cardiac troponin C [M29793]: −3.7 fold
